Target: GcoA-F169A (Amycolatopsis sp., UniProt P0DPQ7, F169A)
Assay: H2O2 detection via HRP and Amplex Red (uncoupling reaction)
Type: biochemical, Amycolatopsis sp. ATCC 39116
Design: GST (N, cleaved yes); made in house; host or cells: E. coli Rosetta 2 (DE3)
Conditions: referenced to NADH consumed
Method: A colorimetric assay involving HRP and Amplex Red was used to quantify H2O2 in the reaction between GcoA-F169A GcoA/GcoB, NADH and guaiacol, syringol, or 3MC, as described in SI Appendix. […]
vi = Vmax[S]/(KM + [S]) (4) […]
The reaction of each aliquot was immediately quenched with 12.5
μL saturated ammonium sulfate, 7% v/v H2SO4 (pH 2.0) prior to loading onto the HPLC column. [Substrate] disappearance was referenced to GcoA (0.2 µM) and fit to a linear line to determine specific activity.
Data analysis. The consumption of NADH and subsequent production of formaldehyde and aromatic product were measured in triplicate and the error reported as ±1 standard deviation. To determine the statistical significance between NADH consumption and the products produced, the p-value was determined for all runs containing guaiacol, syringol, and 3MC. These values were calculated using two degrees of freedom, a tail value of two, and assuming a t-statistical value for unequal variances.
Detection of H2O2 via horseradish peroxidase (HRP) and Amplex Red assay. The reaction between 100 μM guaiacol or 3MC with 0.2 μM F169A/GcoB and 100 μM NADH in air-saturated buffer (25 mM HEPES, 50 mM NaCl, pH 7.5) was monitored continuously in a quartz cuvette, using the NADH consumption assay described above. The same thing was done for syringol, but with either 100 or 200 μM NADH. When there was no longer any change in the spectra, e.g., the reaction was completed, 100 μL was removed from the cuvette and pipetted into a 96-well microplate. A 5 mL solution containing 50 μL of 10 mM Amplex Red (prepared in DMSO and stored at -20 °C) and 100 μL of 10 U/mL HRP was made up in the above buffer. 100 μL of this was added to each of the wells with each reaction sample. The plate was incubated in the dark at room temperature for 30 min, at which point the absorbance at […]
572 nm was recorded by a Varioskan Lux microplate reader (Thermo Scientific). The absorbance was compared to a standard curve with 0-100 μM H2O2 to quantify the amount of peroxide produced in the reactions.
Purified protein was buffer exchanged into 10 mM HEPES pH 7.5 and concentrated to an A280 value of 12, as measured on a NanoDrop 2000 spectrophotometer (Thermo Fisher). Crystals of GcoA were grown with 2.4 M sodium malonate and 200 mM substrate, dissolved in 40% DMSO where necessary. Crystals were cryocooled directly in liquid N2 without further addition of cryoprotectants. All data were collected at Diamond Light Source (Harwell, UK). For each crystal, 1800 images were taken at 0.1o increments using the default wavelength of 0.9795Å on beamline i04. Data was captured on a Pilatus 6M-F detector. […]

Sequence of GcoA-F169A (P0DPQ7 whole entry F169A): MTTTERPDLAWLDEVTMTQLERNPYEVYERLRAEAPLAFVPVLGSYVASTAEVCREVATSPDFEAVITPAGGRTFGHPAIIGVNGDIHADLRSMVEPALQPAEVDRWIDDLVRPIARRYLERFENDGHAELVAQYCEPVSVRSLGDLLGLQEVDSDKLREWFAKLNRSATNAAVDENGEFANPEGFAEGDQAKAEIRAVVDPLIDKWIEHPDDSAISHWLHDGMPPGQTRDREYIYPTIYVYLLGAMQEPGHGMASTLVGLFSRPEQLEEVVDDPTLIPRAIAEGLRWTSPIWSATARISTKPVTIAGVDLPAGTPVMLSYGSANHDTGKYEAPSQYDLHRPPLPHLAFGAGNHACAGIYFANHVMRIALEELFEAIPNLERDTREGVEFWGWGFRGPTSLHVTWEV

COc1cccc(O)c1O [3MC, 3-methoxycatechol]
% H2O2 produced (100 µM substrate + 100 µM NADH): 17 ± 0.2%

COc1ccccc1O [guaiacol, 2-methoxyphenol]
% H2O2 produced (100 µM substrate + 100 µM NADH): 3.7 ± 0.6%

COc1cccc(OC)c1O [syringol, 2,6-dimethoxyphenol]
% H2O2 produced (100 µM substrate + 100 µM NADH): 7.4 ± 0.03% | % H2O2 produced (100 µM substrate + 200 µM NADH): 7.9 ± 0.5%
